Columns and labels:
Soybean [1] = experiment: Preemergence herbicidal activity, soybean; type: in vivo, Glycine max var. Williams; conditions: Glycine max, pre-emergence, 0.3 kg/ha, after 17-21 days, read-out: Preemergence herbicidal activity (% control), Soybean
Procedure: (§1) The 3-[4-(phenylmethoxy)phenyl]-1-substituted-6-haloalkyluracil herbicides of this invention were tested for pre- and postemergence herbicidal activity using a variety of crops and weeds. The test plants included soybean (Glycine max var. Williams), field corn (Zea mays var. Agway 425X), wheat (Triticum aestivum var. Wheaton), morningglory (Ipomea lacunosa or Ipomea hederacea), velvetleaf (Abutilon theophrasti), green foxtail (Setaria viridis), Johnsongrass (Sorghum halepense), blackgrass (Aloepecurus myosuroides), common chickweed (Stellaria media), and common cocklebur (Xanthium pensylvanicum).
(§2) For preemergence testing, two disposable fiber flats (8 cm×15 cm×25 cm) for each rate of application of each candidate herbicide were filled to an approximate depth of 6.5 cm with steam-sterilized sandy loam soil. The soil was leveled and impressed with a template to provide five evenly spaced furrows 13 cm long and 0.5 cm deep in each flat. Seeds of soybean, wheat, corn, green foxtail, and johnsongrass were planted in the furrows of the first flat, and seeds of velvetleaf, morningglory, common chickweed, cocklebur, and blackgrass were planted in the furrows of the second flat. The five-row template was employed to firmly press the seeds into place. A topping soil of equal portions of sand and sandy loam soil was placed uniformly on top of each flat to a depth of approximately 0.5 cm. Flats for postemergence testing were prepared in the same manner except that they were planted 8-12 days prior to the preemergence flats and were placed in a greenhouse and watered, thus allowing the seeds to germinate and the foliage to develop.
(§3) In both pre- and postemergence tests, a stock solution of the candidate herbicide was prepared by dissolving 0.27 g of the compound in 20 mL of water/acetone (50/50) containing 0.5% v/v sorbitan monolaurate. For an application rate of 3000 g/ha of herbicide a 10 mL portion of the stock solution was diluted with water/acetone (50/50) to 45 mL.
(§4) The preemergence flats were initially subjected to a light water spray. The four flats were placed two by two along a conveyor belt (i.e., the two preemergence followed by the two postemergence flats). The conveyor belt fed under a spray nozzle mounted about ten inches above the postemergent foliage. The preemergent flats were elevated on the belt so that the soil surface was at the same level below the spray nozzle as the foliage canopy of the postemergent plants. The spray of herbicidal solution was commenced and once stabilized, the flats were passed under the spray at a speed to receive a coverage equivalent of 1000 L/ha. At this coverage the application rates are those shown in the above table for the individual herbicidal solutions. The preemergence flats were watered immediately thereafter, placed in the greenhouse and watered regularly at the soil surface. The postemergence flats were immediately placed in the greenhouse and not watered until 24 hours after treatment with the test solution. Thereafter they were regularly watered at ground level. After 17-21 days the plants were examined and the phytotoxicity data were recorded.
(§5) Herbicidal activity data at selected application rates are given for various compounds of this invention in Table 2 and Table 3. The test compounds are identified by numbers which correspond to those in Table 1.
(§6) Phytotoxicity data were taken as percent control. Percent control was determined by a method similar to the 0 to 100 rating system disclosed in "Research Methods in Weed Science," 2nd ed., B. Truelove, Ed.; Southern Weed Science Society; Auburn University, Auburn, Ala., 1977.

Wheat [2] = experiment: Preemergence herbicidal activity, wheat; type: in vivo, Triticum aestivum var. Wheaton; conditions: Triticum aestivum, pre-emergence, 0.3 kg/ha, after 17-21 days, read-out: Preemergence herbicidal activity (% control), Wheat
Procedure: as §1, §2, §3, §4, §5, §6

Corn [3] = experiment: Preemergence herbicidal activity, corn; type: in vivo, Zea mays var. Agway 425X; conditions: Zea mays, pre-emergence, 0.3 kg/ha, after 17-21 days, read-out: Preemergence herbicidal activity (% control), Corn
Procedure: as §1, §2, §3, §4, §5, §6

Velvetleaf [4] = experiment: Preemergence herbicidal activity, velvetleaf; type: in vivo; conditions: Abutilon theophrasti, pre-emergence, 0.3 kg/ha, after 17-21 days, read-out: Preemergence herbicidal activity (% control), Velvetleaf
Procedure: as §1, §2, §3, §4, §5, §6

Morningglory [5] = experiment: Preemergence herbicidal activity, morningglory; type: in vivo, Ipomea lacunosa or Ipomea hederacea; conditions: Ipomoea, pre-emergence, 0.3 kg/ha, after 17-21 days, read-out: Preemergence herbicidal activity (% control), Morningglory
Procedure: as §1, §2, §3, §4, §5, §6

Chickweed [6] = experiment: Preemergence herbicidal activity, chickweed; type: in vivo; conditions: Stellaria media, pre-emergence, 0.3 kg/ha, after 17-21 days, read-out: Preemergence herbicidal activity (% control), Chickweed
Procedure: as §1, §2, §3, §4, §5, §6

Cocklebur [7] = experiment: Preemergence herbicidal activity, cocklebur; type: in vivo, Xanthium pensylvanicum; conditions: Xanthium strumarium, pre-emergence, 0.3 kg/ha, after 17-21 days, read-out: Preemergence herbicidal activity (% control), Cocklebur
Procedure: as §1, §2, §3, §4, §5, §6

Blackgrass [8] = experiment: Preemergence herbicidal activity, blackgrass; type: in vivo, Aloepecurus myosuroides; conditions: Alopecurus myosuroides, pre-emergence, 0.3 kg/ha, after 17-21 days, read-out: Preemergence herbicidal activity (% control), Blackgrass
Procedure: as §1, §2, §3, §4, §5, §6

Green foxtail [9] = experiment: Preemergence herbicidal activity, green foxtail; type: in vivo; conditions: Setaria viridis, pre-emergence, 0.3 kg/ha, after 17-21 days, read-out: Preemergence herbicidal activity (% control), Green foxtail
Procedure: as §1, §2, §3, §4, §5, §6

Johnsongrass [10] = experiment: Preemergence herbicidal activity, johnsongrass; type: in vivo; conditions: Sorghum halepense, pre-emergence, 0.3 kg/ha, after 17-21 days, read-out: Preemergence herbicidal activity (% control), Johnsongrass
Procedure: as §1, §2, §3, §4, §5, §6

Soybean [11] = experiment: Postemergence herbicidal activity, soybean; type: in vivo, Glycine max var. Williams; conditions: Glycine max, post-emergence, 0.3 kg/ha, after 17-21 days, read-out: Postemergence herbicidal activity (% control), Soybean
Procedure: as §1, §2, §3, §4, §5, §6

Wheat [12] = experiment: Postemergence herbicidal activity, wheat; type: in vivo, Triticum aestivum var. Wheaton; conditions: Triticum aestivum, post-emergence, 0.3 kg/ha, after 17-21 days, read-out: Postemergence herbicidal activity (% control), Wheat
Procedure: as §1, §2, §3, §4, §5, §6

Corn [13] = experiment: Postemergence herbicidal activity, corn; type: in vivo, Zea mays var. Agway 425X; conditions: Zea mays, post-emergence, 0.3 kg/ha, after 17-21 days, read-out: Postemergence herbicidal activity (% control), Corn
Procedure: as §1, §2, §3, §4, §5, §6

Velvetleaf [14] = experiment: Postemergence herbicidal activity, velvetleaf; type: in vivo; conditions: Abutilon theophrasti, post-emergence, 0.3 kg/ha, after 17-21 days, read-out: Postemergence herbicidal activity (% control), Velvetleaf
Procedure: as §1, §2, §3, §4, §5, §6

Morningglory [15] = experiment: Postemergence herbicidal activity, morningglory; type: in vivo, Ipomea lacunosa or Ipomea hederacea; conditions: Ipomoea, post-emergence, 0.3 kg/ha, after 17-21 days, read-out: Postemergence herbicidal activity (% control), Morningglory
Procedure: as §1, §2, §3, §4, §5, §6

Chickweed [16] = experiment: Postemergence herbicidal activity, chickweed; type: in vivo; conditions: Stellaria media, post-emergence, 0.3 kg/ha, after 17-21 days, read-out: Postemergence herbicidal activity (% control), Chickweed
Procedure: as §1, §2, §3, §4, §5, §6

Cocklebur [17] = experiment: Postemergence herbicidal activity, cocklebur; type: in vivo, Xanthium pensylvanicum; conditions: Xanthium strumarium, post-emergence, 0.3 kg/ha, after 17-21 days, read-out: Postemergence herbicidal activity (% control), Cocklebur
Procedure: as §1, §2, §3, §4, §5, §6

Blackgrass [18] = experiment: Postemergence herbicidal activity, blackgrass; type: in vivo, Aloepecurus myosuroides; conditions: Alopecurus myosuroides, post-emergence, 0.3 kg/ha, after 17-21 days, read-out: Postemergence herbicidal activity (% control), Blackgrass
Procedure: as §1, §2, §3, §4, §5, §6

Green foxtail [19] = experiment: Postemergence herbicidal activity, green foxtail; type: in vivo; conditions: Setaria viridis, post-emergence, 0.3 kg/ha, after 17-21 days, read-out: Postemergence herbicidal activity (% control), Green foxtail
Procedure: as §1, §2, §3, §4, §5, §6

Johnsongrass [20] = experiment: Postemergence herbicidal activity, johnsongrass; type: in vivo; conditions: Sorghum halepense, post-emergence, 0.3 kg/ha, after 17-21 days, read-out: Postemergence herbicidal activity (% control), Johnsongrass
Procedure: as §1, §2, §3, §4, §5, §6

SMILES	activity at 300 g/ha (Soybean [1]) [%]	activity at 300 g/ha (Wheat [2]) [%]	activity at 300 g/ha (Corn [3]) [%]	activity at 300 g/ha (Velvetleaf [4]) [%]	activity at 300 g/ha (Morningglory [5]) [%]	activity at 300 g/ha (Chickweed [6]) [%]	activity at 300 g/ha (Cocklebur [7]) [%]	activity at 300 g/ha (Blackgrass [8]) [%]	activity at 300 g/ha (Green foxtail [9]) [%]	activity at 300 g/ha (Johnsongrass [10]) [%]	activity at 300 g/ha (Soybean [11]) [%]	activity at 300 g/ha (Wheat [12]) [%]	activity at 300 g/ha (Corn [13]) [%]	activity at 300 g/ha (Velvetleaf [14]) [%]	activity at 300 g/ha (Morningglory [15]) [%]	activity at 300 g/ha (Chickweed [16]) [%]	activity at 300 g/ha (Cocklebur [17]) [%]	activity at 300 g/ha (Blackgrass [18]) [%]	activity at 300 g/ha (Green foxtail [19]) [%]	activity at 300 g/ha (Johnsongrass [20]) [%]
Cn1c(C(F)(F)F)cc(=O)n(-c2ccc(OCc3c(Cl)cccc3Cl)cc2)c1=O [Compound 7]	0	0	0	0	0	0	0	0	0	0	0	0	0	0	10	0	0	0	90	0
COc1cccc(COc2ccc(-n3c(=O)cc(C(F)(F)F)n(C)c3=O)cc2)c1 [Compound 8]	10	15	35	100	65	90	0	10	100	80	85	10	85	100	100	100	100	10	100	100
Cn1c(C(F)(F)F)cc(=O)n(-c2ccc(OCc3ccccc3)cc2F)c1=O [Compound 9]	85	40	80	100	100	90	50	30	100	100	70	20	70	100	100	80	100	0	100	95
Cn1c(C(F)(F)F)cc(=O)n(-c2ccc(OCc3ccc(Cl)cc3)cc2F)c1=O [Compound 10, 3-[4-(4-Chlorophenylmethoxy)-2-fluorophenyl]-1-methyl-6-trifluoromethyluracil]	100	20	20	100	100	100	100	50	100	95	95	10	50	100	100	100	100	40	100	95
Cn1c(C(F)(F)F)cc(=O)n(-c2ccc(OCc3ccc(F)cc3)cc2F)c1=O [Compound 11]	85	20	85	100	100	100	90	20	100	95	80	20	70	100	100	80	100	0	100	100
